Laboratory results published in patent publication US20260028326A1, “COMPOUND BASED ON ISOINDOLINE-SUBSTITUTED GLUTARIMIDE BACKBONE AND USE THEREOF” (GLUETACS THERAPEUTICS (SHANGHAI) CO., LTD., priority 2022, published 2026).

Experiments:
CCRF-CEM cells = assay: Tumor cell proliferation IC50 (CCK-8), CCRF-CEM; settings: Homo sapiens, 96 h, read-out: IC50 for inhibiting the proliferation of tumor cells, CCRF-CEM;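 further: cell viability measured with CCK-8 reagent after compound treatment, IC50 taken from plotted growth inhibition curves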
Description: (§1) The tumor cells used herein were cultured in a cell culture medium listed in table A at 37° C. in an incubator with 5% CO2.
(§2) After the cells were treated with the compounds of the present disclosure for a period of time, the cell viability detection reagent was added to the culture medium for cell viability assessment according to the instructions provided with the CCK-8 kit. […] The growth inhibition of the compounds of the present disclosure on cells was plotted by Prism Graphpad software, and the IC50 values of the compounds of the present disclosure were calculated therefrom.

Kasumi-1 cells = assay: Tumor cell proliferation IC50 (CCK-8), Kasumi-1; settings: Homo sapiens, Kasumi 1, 72 h, read-out: IC50 for inhibiting the proliferation of tumor cells, Kasumi-1
Description: as §1, §2

Mino cells = assay: Tumor cell proliferation IC50 (CCK-8), Mino; settings: Homo sapiens, 72 h, read-out: IC50 for inhibiting the proliferation of tumor cells, Mino;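 further: cell viability assessed with CCK-8 reagent after compound exposure, IC50 derived from plotted growth inhibition curves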
[1] = biological target: human Cereblon WT GST-tagged protein (Homo sapiens (Human), UniProt Q96SW2); assay: CRBN-binding affinity, HTRF (CEREBLON BINDING kit)
Summary of the method: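 GST-tagged human WT Cereblon incubated with compound, then Thalidomide-Re tracer and anti-GST Eu antibody added. Displacement read by HTRF, reported as CRBN binding inhibition rate against blank control wells without protein.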

IKZF1 protein = IKZF1 protein (Homo sapiens (Human), UniProt Q13422+Q96SW2); assay: Western-blot assay of substrate protein degradation in hPBMC, IKZF1; type: cell-based; settings: for residual substrate protein level, IKZF1: hPBMC cells, compound 500 nM, 24 hours, Western blot
Ramos cells = assay: Tumor cell proliferation IC50 (CCK-8), Ramos; settings: Homo sapiens, 72 h, read-out: IC50 for inhibiting the proliferation of tumor cells, Ramos
Description: as §1, §2

SU-DHL-4 cells = assay: Tumor cell proliferation IC50 (CCK-8), SU-DHL-4; settings: Homo sapiens, SU-DHL-4, 72 h, read-out: IC50 for inhibiting the proliferation of tumor cells, SU-DHL-4
Description: (§3) Prior to experimentation, all cells used were correctly identified by STR profiling, and tested negative for mycoplasma through routine screenings.
as §2

MM.1R cells = assay: Tumor cell proliferation IC50 (CCK-8), MM.1R; settings: Homo sapiens, 72 h, read-out: IC50 for inhibiting the proliferation of tumor cells, MM.1R
Description: as §1, §2

TMD8 cells = assay: Tumor cell proliferation IC50 (CCK-8), TMD8; settings: Homo sapiens, TMD8, 72 h, read-out: IC50 for inhibiting the proliferation of tumor cells, TMD8
Description: as §1, §2

[2] = Pharmacokinetic study, oral administration, mouse plasma; type: in vivo, mice; settings: p.o. 30 mg/kg
Description: The experimental animals used can be those commonly used in pharmacokinetic experiments, e.g., adult and healthy rodents (e.g., mice, rats (such as Sprague-Dawley (SD) rats), guinea pigs) or non-rodents (rabbits, dogs, and monkeys). In the present disclosure, mice were used as the experimental animals.
The experimental animals were divided into two groups: a control group (for collecting blank plasma) and an orally administered group (dosed at 10 mg/kg or 30 mg/kg). Blood samples were collected at predetermined sampling time points after administration, such as 0.25 h, 0.5 h, 1 h, 2 h, 4 h, 8 h, and 24 h post-dosing. Blank plasma was collected from the control group.
Plasma samples were preprocessed before analysis: 10 μL of 50% acetonitrile and 200 μL of internal standard solution (containing 50 ng/mL dexamethasone in acetonitrile) were added to 10 μL of plasma samples. For the blank control group, the same volume of acetonitrile was added instead of the internal standard. The processed samples were vortexed, centrifuged, and the supernatant was taken for LC-MS/MS injection analysis.
After preparing standard curves and quality control (QC) samples, the concentrations of the compounds in the plasma samples were determined by LC-MS/MS analysis. Based on the plasma concentration data obtained from LC-MS/MS analysis, the pharmacokinetic parameters of the test compounds were calculated using the non-compartmental model in the pharmacokinetic calculation software WinNonlin v8.1.

IKZF3 protein = IKZF3 protein (Homo sapiens (Human), UniProt Q96SW2+Q9UKT9); assay: Western-blot assay of substrate protein degradation in hPBMC, IKZF3; type: cell-based; settings: for residual substrate protein level, IKZF3: hPBMC cells, compound 500 nM, 24 hours, Western blot
SU-DHL-6 cells = assay: Tumor cell proliferation IC50 (CCK-8), SU-DHL-6; settings: Homo sapiens, SU-DHL-6, 72 h, read-out: IC50 for inhibiting the proliferation of tumor cells, SU-DHL-6
Description: as §3, §2

MDA-MB-231 cells = assay: Tumor cell proliferation IC50 (CCK-8), MDA-MB-231; settings: Homo sapiens, MDA-MB-231, 96 h, read-out: IC50 for inhibiting the proliferation of tumor cells, MDA-MB-231
Description: as §3, §2

MM.1S cells = assay: Tumor cell proliferation IC50 (CCK-8), MM.1S; settings: Homo sapiens, MM1.S, 72 h, read-out: IC50 for inhibiting the proliferation of tumor cells, MM.1S;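 further: viability of cultured cells read by CCK-8 reagent after compound exposure, growth inhibition curves fitted to derive IC50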
SW620 cells = assay: Tumor cell proliferation IC50 (CCK-8), SW620; settings: Homo sapiens, SW-620, 96 h, read-out: IC50 for inhibiting the proliferation of tumor cells, SW620
Description: as §1, §2

GSPT1 protein = GSPT1 protein (Homo sapiens (Human), UniProt P15170+Q96SW2); assay: Western-blot assay of substrate protein degradation in hPBMC, GSPT1; type: cell-based; settings: for residual substrate protein level, GSPT1: hPBMC cells, compound 500 nM, 24 hours, Western blot
Daudi cells = assay: Tumor cell proliferation IC50 (CCK-8), Daudi; settings: Homo sapiens, read-out: IC50 for inhibiting the proliferation of tumor cells, Daudi;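 further: cell viability read with CCK-8 reagent after compound exposure of Daudi cells, IC50 derived from plotted growth inhibition curves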
Description: as §1, §2

MV-4-11 cells = assay: Tumor cell proliferation IC50 (CCK-8), MV-4-11; settings: Homo sapiens, MV4-11, 96 h, read-out: IC50 for inhibiting the proliferation of tumor cells, MV-4-11
Description: as §1, §2

IKZF1 protein, sequence (Q13422 whole entry): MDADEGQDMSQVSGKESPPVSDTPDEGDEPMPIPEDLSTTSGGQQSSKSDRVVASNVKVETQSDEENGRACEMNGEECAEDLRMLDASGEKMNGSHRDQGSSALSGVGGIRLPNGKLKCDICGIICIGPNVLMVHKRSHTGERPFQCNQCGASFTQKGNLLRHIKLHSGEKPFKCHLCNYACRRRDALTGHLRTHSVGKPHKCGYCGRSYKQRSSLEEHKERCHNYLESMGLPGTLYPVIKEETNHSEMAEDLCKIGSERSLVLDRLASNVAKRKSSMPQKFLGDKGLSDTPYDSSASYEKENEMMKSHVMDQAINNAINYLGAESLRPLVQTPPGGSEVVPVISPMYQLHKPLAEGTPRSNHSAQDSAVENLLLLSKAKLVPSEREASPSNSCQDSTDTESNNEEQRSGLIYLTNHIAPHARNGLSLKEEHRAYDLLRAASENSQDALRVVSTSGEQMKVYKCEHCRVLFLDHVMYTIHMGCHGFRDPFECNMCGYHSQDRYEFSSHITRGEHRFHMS
IKZF1 protein, sequence (Q96SW2 whole entry): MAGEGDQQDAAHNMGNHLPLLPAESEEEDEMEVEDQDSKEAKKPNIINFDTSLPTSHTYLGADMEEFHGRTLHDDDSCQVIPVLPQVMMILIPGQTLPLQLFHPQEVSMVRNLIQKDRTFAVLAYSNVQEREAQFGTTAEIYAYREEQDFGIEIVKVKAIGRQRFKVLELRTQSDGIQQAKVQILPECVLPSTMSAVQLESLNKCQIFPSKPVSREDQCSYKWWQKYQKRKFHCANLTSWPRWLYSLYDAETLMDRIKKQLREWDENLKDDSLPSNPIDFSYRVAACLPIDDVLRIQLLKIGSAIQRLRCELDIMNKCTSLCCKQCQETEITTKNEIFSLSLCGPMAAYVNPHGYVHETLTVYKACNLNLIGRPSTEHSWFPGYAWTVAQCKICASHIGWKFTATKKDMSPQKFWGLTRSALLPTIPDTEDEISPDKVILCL
IKZF1 protein, sequence (Q16531 whole entry partner): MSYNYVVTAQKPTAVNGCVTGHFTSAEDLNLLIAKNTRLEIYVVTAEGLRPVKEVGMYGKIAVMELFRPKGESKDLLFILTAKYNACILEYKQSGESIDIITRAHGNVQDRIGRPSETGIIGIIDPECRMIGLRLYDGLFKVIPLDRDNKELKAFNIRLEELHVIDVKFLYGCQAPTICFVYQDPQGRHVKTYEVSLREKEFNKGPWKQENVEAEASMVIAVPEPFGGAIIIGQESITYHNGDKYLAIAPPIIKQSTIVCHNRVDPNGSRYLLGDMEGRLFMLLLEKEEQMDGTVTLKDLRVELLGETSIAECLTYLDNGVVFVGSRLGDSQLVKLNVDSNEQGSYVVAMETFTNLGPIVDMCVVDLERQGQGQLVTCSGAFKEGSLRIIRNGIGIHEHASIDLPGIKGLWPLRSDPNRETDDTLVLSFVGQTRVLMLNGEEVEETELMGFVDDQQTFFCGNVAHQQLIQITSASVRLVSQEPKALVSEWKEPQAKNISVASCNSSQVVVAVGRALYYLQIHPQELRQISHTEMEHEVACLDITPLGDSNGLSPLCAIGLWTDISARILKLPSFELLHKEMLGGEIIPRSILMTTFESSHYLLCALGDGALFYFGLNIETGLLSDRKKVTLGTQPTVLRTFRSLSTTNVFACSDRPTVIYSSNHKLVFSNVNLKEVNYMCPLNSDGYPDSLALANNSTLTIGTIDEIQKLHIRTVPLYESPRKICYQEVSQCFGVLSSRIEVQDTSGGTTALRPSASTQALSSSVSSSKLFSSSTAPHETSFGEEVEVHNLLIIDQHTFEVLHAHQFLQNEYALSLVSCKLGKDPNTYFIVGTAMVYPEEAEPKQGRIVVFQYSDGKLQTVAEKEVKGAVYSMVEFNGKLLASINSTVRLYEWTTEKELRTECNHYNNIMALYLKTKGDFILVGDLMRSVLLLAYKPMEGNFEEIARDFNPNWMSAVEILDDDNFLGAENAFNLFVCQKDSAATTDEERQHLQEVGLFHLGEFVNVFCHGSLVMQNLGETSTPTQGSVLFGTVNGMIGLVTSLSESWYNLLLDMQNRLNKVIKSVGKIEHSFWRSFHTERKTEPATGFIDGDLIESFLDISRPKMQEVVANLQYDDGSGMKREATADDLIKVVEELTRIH
GSPT1 protein, sequence (P15170 whole entry): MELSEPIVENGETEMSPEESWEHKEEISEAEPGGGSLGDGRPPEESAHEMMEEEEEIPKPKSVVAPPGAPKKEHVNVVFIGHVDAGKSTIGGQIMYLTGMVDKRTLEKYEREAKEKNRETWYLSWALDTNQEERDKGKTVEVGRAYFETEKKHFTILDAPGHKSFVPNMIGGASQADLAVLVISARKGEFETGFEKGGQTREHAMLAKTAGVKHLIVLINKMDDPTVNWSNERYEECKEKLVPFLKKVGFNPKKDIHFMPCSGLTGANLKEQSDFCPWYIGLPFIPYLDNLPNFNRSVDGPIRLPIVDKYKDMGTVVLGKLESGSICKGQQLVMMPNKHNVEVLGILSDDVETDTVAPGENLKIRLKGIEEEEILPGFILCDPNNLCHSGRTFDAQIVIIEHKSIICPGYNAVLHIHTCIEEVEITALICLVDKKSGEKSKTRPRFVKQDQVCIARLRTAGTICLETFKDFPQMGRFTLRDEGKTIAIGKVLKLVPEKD
GSPT1 protein, sequence (Q96SW2 whole entry): as the sequence (Q96SW2 whole entry) above
GSPT1 protein, sequence (Q16531 whole entry partner): as the sequence (Q16531 whole entry partner) above
IKZF3 protein, sequence (Q9UKT9 whole entry): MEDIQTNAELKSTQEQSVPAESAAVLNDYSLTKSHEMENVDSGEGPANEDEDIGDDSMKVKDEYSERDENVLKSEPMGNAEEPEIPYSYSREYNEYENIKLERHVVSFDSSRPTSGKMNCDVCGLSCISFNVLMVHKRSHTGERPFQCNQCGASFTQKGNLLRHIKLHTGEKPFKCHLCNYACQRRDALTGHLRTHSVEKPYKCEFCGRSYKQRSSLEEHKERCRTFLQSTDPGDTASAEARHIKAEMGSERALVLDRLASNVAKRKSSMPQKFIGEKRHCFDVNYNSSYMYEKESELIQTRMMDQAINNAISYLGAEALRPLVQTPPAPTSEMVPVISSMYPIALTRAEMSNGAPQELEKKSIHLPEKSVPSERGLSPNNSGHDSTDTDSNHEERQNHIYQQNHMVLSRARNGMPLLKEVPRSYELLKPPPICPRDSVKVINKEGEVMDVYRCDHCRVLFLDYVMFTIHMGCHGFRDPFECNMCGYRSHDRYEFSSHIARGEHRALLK
IKZF3 protein, sequence (Q96SW2 whole entry): as the sequence (Q96SW2 whole entry) above
IKZF3 protein, sequence (Q16531 whole entry partner): as the sequence (Q16531 whole entry partner) above
human Cereblon WT GST-tagged protein, sequence (Q96SW2 whole entry): as the sequence (Q96SW2 whole entry) above

Row | IC50 (CCRF-CEM cells) | IC50 (Kasumi-1 cells) | IC50 (Mino cells) | IC50 [1] | IC50 (Ramos cells) | IC50 (SU-DHL-4 cells) | IC50 (MM.1R cells) | IC50 (TMD8 cells) | AUC(0-t) [2] | IC50 (SU-DHL-6 cells) | IC50 (MDA-MB-231 cells) | IC50 (MM.1S cells) | IC50 (SW620 cells) | Structure (SMILES) | residual substrate protein level, IKZF1 (IKZF1 protein) | residual substrate protein level, IKZF3 (IKZF3 protein) | residual substrate protein level, GSPT1 (GSPT1 protein) | further results
1 | < 0.005 µM | < 0.005 µM | < 0.005 µM | 0.77 µM | 0.005 to 0.01 µM | 0.1 to 0.5 µM | < 0.005 µM | < 0.005 µM | > 500 ng·h/mL | 0.01 to 0.05 µM | < 0.005 µM | < 0.005 µM | 0.005 to 0.01 µM | O=C1CCC(N2Cc3cc(CN4CCN(Cc5ccccc5-c5ccc(Cl)cc5)CC4)ccc3C2=O)C(=O)N1 (stereo not shown) [GT-03355, 3-(5-((4-((4′-chloro-[1,1′-biphenyl]-2-yl)methyl)piperazin-1-yl)methyl)-1-oxoisoindolin-2-yl)piperidine-2,6-dione] | A (A represents a residual substrate protein level of <50%) | A (A represents a residual substrate protein level of <50%) | A (A represents a residual substrate protein level of <50%) | –
2 | 1 to 5 µM | – | – | – | 5 to 10 µM | – | – | – | – | 0.1 to 0.5 µM | – | – | – | O=C1CCC(N2Cc3cc(-c4ccc(CN5CCN(Cc6ccccc6-c6ccc(Cl)cc6)CC5)cc4)ccc3C2=O)C(=O)N1 (stereo not shown) [GT-03356, 3-(5-(4-((4-((4′-chloro-[1,1′-biphenyl]-2-yl)methyl)piperazin-1-yl)methyl)phenyl)-1-oxoisoindolin-2-yl)piperidine-2,6-dione] | – | – | – | –
3 | < 0.005 µM | < 0.005 µM | – | 1.83 µM | 0.01 to 0.05 µM | 0.1 to 0.5 µM | 0.005 to 0.01 µM | 0.01 to 0.05 µM | > 500 ng·h/mL | 1 to 5 µM | < 0.005 µM | < 0.005 µM | – | CC1(C)CCC(CN2CCN(Cc3cc4c(cc3F)C(=O)N(C3CCC(=O)NC3=O)C4)CC2)=C(c2ccc(Cl)cc2)C1 (stereo not shown) [GT-03578, 3-(5-((4-((4′-chloro-5,5-dimethyl-3,4,5,6-tetrahydro-[1,1′-biphenyl]-2-yl)methyl)piperazin-1-yl)methyl)-6-fluoro-1-oxoisoindolin-2-yl)piperidine-2,6-dione] | A (A represents a residual substrate protein level of <50%) | A (A represents a residual substrate protein level of <50%) | A (A represents a residual substrate protein level of <50%) | –
4 | > 10 µM | > 10 µM | 1 to 5 µM | – | 1 to 5 µM | > 10 µM | > 10 µM | 0.5 to 1 µM | – | > 10 µM | > 10 µM | 0.1 to 0.5 µM | > 10 µM | Nc1cccc2c1C(=O)N(C1CCC(=O)NC1=O)C2=O (stereo not shown) [pomalidomide, reference compound] | – | – | – | degradation of IKZF1 protein (Western blot, FIG. 1) (IKZF1 protein; hPBMC, 24 h, 50 nM): cannot degrade; degradation of IKZF3 protein (Western blot, FIG. 1) (IKZF3 protein; hPBMC, 24 h, 50 nM): cannot degrade; IC50 (Daudi cells): 5 to 10 µM; degradation of GSPT1 protein (Western blot, FIG. 1) (GSPT1 protein; hPBMC, 24 h, 50 nM): cannot degrade; IC50 (MV-4-11 cells): > 10 µM
